Assay results from patent US5840684A, “Glycopeptide antibiotic derivatives” (Eli Lilly and Company, priority 1995, dated 1998).
Converted amounts (≈) assume the structure as drawn.

Key:
[1] = system: Staphylococcus aureus S13E; type: cell-based
Protocol: (§1) The MIC's were determined using a standard broth micro-dilution assay.

[2] = system: Staphylococcus aureus SA1199B; type: cell-based
Protocol: as §1

[3] = system: vancomycin-susceptible enterococci; test: broth micro-dilution, mean geometric MIC; type: cell-based, Enterococcus faecium and Enterococcus faecalis; settings: enterococci, 24-hour incubation
[4] = system: vancomycin-resistant enterococci; test: broth micro-dilution, mean geometric MIC; type: cell-based, Enterococcus faecium and Enterococcus faecalis; settings: enterococci, 24-hour incubation
[5] = system: Staphylococcus aureus SA1199A; test: broth micro-dilution MIC; type: cell-based
Protocol: as §1

[6] = system: Staphylococcus aureus 446; test: broth micro-dilution MIC; type: cell-based
Protocol: as §1

[7] = system: Staphylococcus aureus SA1199; test: broth micro-dilution MIC; type: cell-based
Protocol: as §1

[8] = system: Entercoccus faecium 180-1; test: broth micro-dilution MIC; type: cell-based
Protocol: as §1

[9] = system: Staphylococcus aureus 447; test: broth micro-dilution MIC; type: cell-based
Protocol: as §1

[10] = system: Streptococcus pyogenes C203; test: broth micro-dilution MIC; type: cell-based
Protocol: as §1

[11] = system: Staphylococcus aureus 489; test: broth micro-dilution MIC; type: cell-based
Protocol: as §1

[12] = system: Staphylococcus aureus X778; test: broth micro-dilution MIC; type: cell-based
Protocol: as §1

[13] = system: Staphylococcus aureus 491; test: broth micro-dilution MIC; type: cell-based
Protocol: as §1

Entercoccus faecium 276 = test: broth micro-dilution MIC; type: cell-based
Protocol: as §1

[14] = system: Staphylococcus aureus X400; test: broth micro-dilution MIC; type: cell-based
Protocol: as §1

[15] = system: Streptococcus pneumoniae P1; test: broth micro-dilution MIC; type: cell-based
Protocol: (§2) The formula I compounds have in vitro and in vivo activity against Gram-positive pathogenic bacteria. The MIC's were determined using a standard broth micro-dilution assay.

[16] = system: Staphylococcus haemolyticus 105; test: broth micro-dilution MIC; type: cell-based
Protocol: as §2

[17] = system: Enterococcus gallinarum 245; test: broth micro-dilution MIC; type: cell-based; settings: Enterococcus gallinarum 245
Protocol: as §2

[18] = system: Staphylococcus epidermidis 270; test: broth micro-dilution MIC; type: cell-based
Protocol: as §2

[19] = system: Staphylococcus haemolyticus 415; test: broth micro-dilution MIC; type: cell-based
Protocol: as §2

Entercoccus faecium 2041 = test: broth micro-dilution MIC; type: cell-based; settings: Entercoccus faecium 2041
Protocol: as §2

Entercoccus faecium 180 = test: broth micro-dilution MIC; type: cell-based; settings: Entercoccus faecium 180
Protocol: as §2

Row | Compound | MIC [1] [µg/mL] | MIC [2] [µg/mL] | mean geometric MIC, Vancomycin Sensitive Strains [3] [µg/mL] | mean geometric MIC, Vancomycin Resistant Strains [4] [µg/mL] | MIC [6] [µg/mL] | MIC [7] [µg/mL] | MIC [8] [µg/mL] | MIC [9] [µg/mL] | MIC [10] [µg/mL] | MIC [11] [µg/mL] | MIC [12] [µg/mL] | MIC [13] [µg/mL] | MIC (Entercoccus faecium 276) [µg/mL] | MIC [14] [µg/mL] | MIC [15] [µg/mL] | MIC [16] [µg/mL] | MIC [17] [µg/mL] | MIC [18] [µg/mL] | MIC [19] [µg/mL] | MIC (Entercoccus faecium 2041) [µg/mL] | also measured
1 | CNC(CC(C)C)C(=O)NC1C(=O)NC(CC(N)=O)C(=O)NC2C(=O)NC3C(=O)NC(C(=O)NC(C(=O)O)c4cc(O)cc(O)c4-c4cc3ccc4O)C(OC3CC(C)(N)C(O)C(C)O3)c3ccc(c(Cl)c3)Oc3cc2cc(c3OC2OC(CO)C(O)C(O)C2OC2CC(C)(NCc3ccc4c(c3O)Cc3ccccc3-4)C(O)C(C)O2)Oc2ccc(cc2Cl)C1O (stereo not drawn) [Compound 103] | 1 (≈ 0.56 µM) | 2 (≈ 1.12 µM) | 0.33 | 4.0 | 0.5 (≈ 0.28 µM) | 1 (≈ 0.56 µM) | ≤ 0.06 | 1 (≈ 0.56 µM) | ≤ 0.06 | ≤ 0.06 | 0.5 (≈ 0.28 µM) | 1 (≈ 0.56 µM) | 0.25 (≈ 0.14 µM) | ≤ 0.06 | ≤ 0.06 | 4 (≈ 2.24 µM) | 8 (≈ 4.48 µM) | 1 (≈ 0.56 µM) | 8 (≈ 4.48 µM) | ≤ 0.06 | MIC [5]: ≤ 0.06 µg/mL
2 | CNC(CC(C)C)C(=O)NC1C(=O)NC(CC(N)=O)C(=O)NC2C(=O)NC3C(=O)NC(C(=O)NC(C(=O)O)c4cc(O)cc(O)c4-c4cc3ccc4O)C(OC3CC(C)(N)C(O)C(C)O3)c3ccc(c(Cl)c3)Oc3cc2cc(c3OC2OC(CO)C(O)C(O)C2OC2CC(C)(NCc3ccc(OCCC4CCCCC4)cc3)C(O)C(C)O2)Oc2ccc(cc2Cl)C1O (stereo not drawn) [Compound 127] | 2 (≈ 1.11 µM) | 2 (≈ 1.11 µM) | 0.33 | 1.2 | 1 (≈ 0.553 µM) | 2 (≈ 1.11 µM) | ≤ 0.06 | 2 (≈ 1.11 µM) | ≤ 0.06 | 2 (≈ 1.11 µM) | 1 (≈ 0.553 µM) | 1 (≈ 0.553 µM) | ≤ 0.06 | 2 (≈ 1.11 µM) | ≤ 0.06 | 2 (≈ 1.11 µM) | 4 (≈ 2.21 µM) | ≤ 0.06 | 4 (≈ 2.21 µM) | ≤ 0.06 | MIC (Entercoccus faecium 180): ≤ 0.06 µg/mL
3 | CNC(CC(C)C)C(=O)NC1C(=O)NC(CC(N)=O)C(=O)NC2C(=O)NC3C(=O)NC(C(=O)NC(C(=O)O)c4cc(O)cc(O)c4-c4cc3ccc4O)C(OC3CC(C)(N)C(O)C(C)O3)c3ccc(c(Cl)c3)Oc3cc2cc(c3OC2OC(CO)C(O)C(O)C2OC2CC(C)(NCc3cccc(OCc4ccc5ccccc5n4)c3)C(O)C(C)O2)Oc2ccc(cc2Cl)C1O (stereo not drawn) [Compound 125] | 1 (≈ 0.544 µM) | 2 (≈ 1.09 µM) | 0.14 | 3.4 | 4 (≈ 2.17 µM) | 0.5 (≈ 0.272 µM) | ≤ 0.06 | 2 (≈ 1.09 µM) | ≤ 0.06 | 2 (≈ 1.09 µM) | 2 (≈ 1.09 µM) | 1 (≈ 0.544 µM) | 2 (≈ 1.09 µM) | 1 (≈ 0.544 µM) | ≤ 0.06 | 4 (≈ 2.17 µM) | 12 (≈ 6.52 µM) | 1 (≈ 0.544 µM) | 2 (≈ 1.09 µM) | ≤ 0.06 | MIC (Entercoccus faecium 180): 1 µg/mL (≈ 0.544 µM)
4 | CNC(CC(C)C)C(=O)NC1C(=O)NC(CC(N)=O)C(=O)NC2C(=O)NC3C(=O)NC(C(=O)NC(C(=O)O)c4cc(O)cc(O)c4-c4cc3ccc4O)C(OC3CC(C)(N)C(O)C(C)O3)c3ccc(c(Cl)c3)Oc3cc2cc(c3OC2OC(CO)C(O)C(O)C2OC2CC(C)(NCc3cccc(Oc4ccc(C(F)(F)F)cc4)c3)C(O)C(C)O2)Oc2ccc(cc2Cl)C1O (stereo not drawn) [Compound 132] | 2 (≈ 1.09 µM) | 2 (≈ 1.09 µM) | 0.048 | 1.2 | 1 (≈ 0.543 µM) | 1 (≈ 0.543 µM) | ≤ 0.06 | 2 (≈ 1.09 µM) | ≤ 0.06 | 1 (≈ 0.543 µM) | 2 (≈ 1.09 µM) | 0.5 (≈ 0.271 µM) | 1 (≈ 0.543 µM) | 1 (≈ 0.543 µM) | ≤ 0.06 | 1 (≈ 0.543 µM) | 2 (≈ 1.09 µM) | 2 (≈ 1.09 µM) | 2 (≈ 1.09 µM) | 1 (≈ 0.543 µM) | 
5 | CNC(CC(C)C)C(=O)NC1C(=O)NC(CC(N)=O)C(=O)NC2C(=O)NC3C(=O)NC(C(=O)NC(C(=O)O)c4cc(O)cc(O)c4-c4cc3ccc4O)C(OC3CC(C)(N)C(O)C(C)O3)c3ccc(c(Cl)c3)Oc3cc2cc(c3OC2OC(CO)C(O)C(O)C2OC2CC(C)(NCc3ccc(OCCCC#N)cc3)C(O)C(C)O2)Oc2ccc(cc2Cl)C1O (stereo not drawn) [Compound 55] | 0.5 (≈ 0.283 µM) | 0.5 (≈ 0.283 µM) | 1.7 | 13 | 0.5 (≈ 0.283 µM) | 0.5 (≈ 0.283 µM) | ≤ 0.06 | 4 (≈ 2.27 µM) | ≤ 0.06 | 1 (≈ 0.566 µM) | 0.5 (≈ 0.283 µM) | 0.5 (≈ 0.283 µM) | 0.5 (≈ 0.283 µM) | ≤ 0.06 | ≤ 0.06 | 4 (≈ 2.27 µM) |  | 1 (≈ 0.566 µM) |  | 0.125 (≈ 0.0708 µM) | MIC [5]: ≤ 0.06 µg/mL; MIC (Entercoccus faecium 180): 2 µg/mL (≈ 1.13 µM)
6 | CNC(CC(C)C)C(=O)NC1C(=O)NC(CC(N)=O)C(=O)NC2C(=O)NC3C(=O)NC(C(=O)NC(C(=O)O)c4cc(O)cc(O)c4-c4cc3ccc4O)C(OC3CC(C)(N)C(O)C(C)O3)c3ccc(c(Cl)c3)Oc3cc2cc(c3OC2OC(CO)C(O)C(O)C2OC2CC(C)(NCc3ccc(OC)c4ccccc34)C(O)C(C)O2)Oc2ccc(cc2Cl)C1O (stereo not drawn) [Compound 15] | 0.5 (≈ 0.284 µM) | 0.25 (≈ 0.142 µM) | 0.14 | 6.7 | 1 (≈ 0.567 µM) | 0.25 (≈ 0.142 µM) | ≤ 0.06 | 2 (≈ 1.13 µM) | ≤ 0.06 | ≤ 0.06 | 0.25 (≈ 0.142 µM) | 0.25 (≈ 0.142 µM) | ≤ 0.06 | 0.25 (≈ 0.142 µM) | ≤ 0.06 | 0.5 (≈ 0.284 µM) | ≤ 0.06 | 1 (≈ 0.567 µM) | 2 (≈ 1.13 µM) | ≤ 0.06 | MIC (Entercoccus faecium 180): 0.5 µg/mL (≈ 0.284 µM)
7 | CNC(CC(C)C)C(=O)NC1C(=O)NC(CC(N)=O)C(=O)NC2C(=O)NC3C(=O)NC(C(=O)NC(C(=O)O)c4cc(O)cc(O)c4-c4cc3ccc4O)C(OC3CC(C)(N)C(O)C(C)O3)c3ccc(c(Cl)c3)Oc3cc2cc(c3OC2OC(CO)C(O)C(O)C2OC2CC(C)(NCc3ccc(OCCOC(C)(C)C)cc3)C(O)C(C)O2)Oc2ccc(cc2Cl)C1O (stereo not drawn) [Compound 154] | 0.25 (≈ 0.139 µM) | 0.25 (≈ 0.139 µM) | 0.072 | 2.8 | 2 (≈ 1.11 µM) | 2 (≈ 1.11 µM) | ≤ 0.06 | 2 (≈ 1.11 µM) | ≤ 0.06 | 1 (≈ 0.556 µM) | 0.5 (≈ 0.278 µM) | 0.5 (≈ 0.278 µM) | 0.5 (≈ 0.278 µM) | 2 (≈ 1.11 µM) | ≤ 0.06 | 4 (≈ 2.22 µM) | 4 (≈ 2.22 µM) | 0.5 (≈ 0.278 µM) | 4 (≈ 2.22 µM) |  | MIC (Entercoccus faecium 180): 1 µg/mL (≈ 0.556 µM)
8 | CNC(CC(C)C)C(=O)NC1C(=O)NC(CC(N)=O)C(=O)NC2C(=O)NC3C(=O)NC(C(=O)NC(C(=O)O)c4cc(O)cc(O)c4-c4cc3ccc4O)C(OC3CC(C)(N)C(O)C(C)O3)c3ccc(c(Cl)c3)Oc3cc2cc(c3OC2OC(CO)C(O)C(O)C2OC2CC(C)(NCc3ccc4c(c3)OCCO4)C(O)C(C)O2)Oc2ccc(cc2Cl)C1O (stereo not drawn) [Compound 56] | 0.125 (≈ 0.0718 µM) | 0.5 (≈ 0.287 µM) |  | 19 | 0.5 (≈ 0.287 µM) | 0.125 (≈ 0.0718 µM) | ≤ 0.06 | 2 (≈ 1.15 µM) | ≤ 0.06 | 1 (≈ 0.575 µM) | 0.125 (≈ 0.0718 µM) | 0.5 (≈ 0.287 µM) | 0.25 (≈ 0.144 µM) | ≤ 0.06 | ≤ 0.06 | 4 (≈ 2.3 µM) | 16 (≈ 9.19 µM) | 1 (≈ 0.575 µM) | 16 (≈ 9.19 µM) | 0.25 (≈ 0.144 µM) | MIC [5]: ≤ 0.06 µg/mL; MIC (Entercoccus faecium 180): 2 µg/mL (≈ 1.15 µM)
